Consider 6 compounds from ChEMBL document CHEMBL1156516, “Protein kinase C epsilon regulates gamma-aminobutyrate type A receptor sensitivity to ethanol and benzodiazepines through phosphorylation of gamma2 subunits” (J Biol Chem, 2007).

The species entered for assay [1] is Mus musculus. Put plainly: Activity of human GABA alpha-1-beta-2-gamma-2S327 receptor in wild type mouse assessed as ethanol induced GABA current.
The subject of assay [2] is HEK293. Put plainly: Activity of human GABA alpha-1-beta-2-gamma-2S327 receptor in HEK293 cells expressing as-PKCepsilon cells assessed as induction of ethanol induced GABA current. It is filed as cell-based.
Assay [3] addresses Protein kinase C delta type (Homo sapiens, UniProt Q05655). Put plainly: Inhibition of human PKCdelta.
Assay [4] addresses T1, Protein kinase C epsilon type (Homo sapiens, UniProt Q02156).
T1 sequence (Q02156 whole entry): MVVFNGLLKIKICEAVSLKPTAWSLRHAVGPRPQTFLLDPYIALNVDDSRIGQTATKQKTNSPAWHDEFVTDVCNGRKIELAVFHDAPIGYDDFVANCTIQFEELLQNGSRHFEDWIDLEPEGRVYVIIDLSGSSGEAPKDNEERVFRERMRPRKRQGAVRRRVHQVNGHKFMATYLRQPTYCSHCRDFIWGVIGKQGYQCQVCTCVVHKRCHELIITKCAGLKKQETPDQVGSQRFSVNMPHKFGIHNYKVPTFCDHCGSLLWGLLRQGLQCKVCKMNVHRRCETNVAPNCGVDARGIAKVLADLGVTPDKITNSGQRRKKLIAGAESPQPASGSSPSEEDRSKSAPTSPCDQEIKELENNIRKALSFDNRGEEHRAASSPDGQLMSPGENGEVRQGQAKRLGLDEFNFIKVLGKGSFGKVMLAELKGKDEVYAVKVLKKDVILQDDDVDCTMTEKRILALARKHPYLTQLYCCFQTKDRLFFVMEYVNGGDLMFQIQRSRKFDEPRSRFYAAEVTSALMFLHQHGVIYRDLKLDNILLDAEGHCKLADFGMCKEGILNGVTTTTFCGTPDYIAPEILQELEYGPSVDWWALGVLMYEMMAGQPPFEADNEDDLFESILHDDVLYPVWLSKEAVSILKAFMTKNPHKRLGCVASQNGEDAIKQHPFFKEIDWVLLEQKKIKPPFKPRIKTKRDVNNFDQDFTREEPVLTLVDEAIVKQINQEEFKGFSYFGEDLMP
Briefly: Inhibition of human PKCepsilon.

Assay [5] has as its target Protein kinase C epsilon type (Homo sapiens, UniProt Q02156, M486A). Put plainly: (§1) Inhibition of human PKCepsilon type M486A mutant.
In assay [6] the target is Protein kinase C gamma type (Homo sapiens, UniProt P05129). Briefly: Inhibition of human PKCgamma.
Assay [7] relates to HEK293. Briefly: Activity of human GABA alpha-1-beta-2-gamma-2L S327A mutant in HEK293 cells expressing as-PKCepsilon assessed as inhibition of ethanol induced GABA current at 30 uM. The assay is classed as cell-based.
The target of assay [8] is T2, GABA-A receptor; alpha-1/beta-2/gamma-2 (Homo sapiens) (UniProt P14867+P47870+P18507). The settings on record: HEK293.
For assay [9], the target named is T3, Gamma-aminobutyric acid receptor subunit alpha-1 (Homo sapiens) (UniProt P14867).
T3 sequence (whole entry): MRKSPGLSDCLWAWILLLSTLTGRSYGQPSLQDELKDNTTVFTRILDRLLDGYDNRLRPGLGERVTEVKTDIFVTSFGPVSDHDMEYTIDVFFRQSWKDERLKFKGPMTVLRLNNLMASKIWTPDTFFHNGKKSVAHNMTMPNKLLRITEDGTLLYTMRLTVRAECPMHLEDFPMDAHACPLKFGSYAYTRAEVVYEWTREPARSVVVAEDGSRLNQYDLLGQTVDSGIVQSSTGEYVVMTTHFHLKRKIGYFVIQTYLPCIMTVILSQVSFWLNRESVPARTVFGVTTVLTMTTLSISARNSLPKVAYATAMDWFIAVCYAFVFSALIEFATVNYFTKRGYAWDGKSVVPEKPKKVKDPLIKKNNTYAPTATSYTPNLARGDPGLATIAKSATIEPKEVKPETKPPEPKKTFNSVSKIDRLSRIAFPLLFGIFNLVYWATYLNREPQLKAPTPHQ
As to conditions: HEK293.

Assay [10] concerns HEK293. As to conditions: Homo sapiens.
Assay [11] deals with T2, GABA-A receptor; alpha-1/beta-2/gamma-2 (Homo sapiens). As to conditions: HEK293. This is another data set of the same source.
For assay [12], the system named is HEK293. As to conditions: Homo sapiens. This is another data set of the same source.
The subject of assay [13] is Mus musculus. Briefly: Induction of rotarod ataxia in PKCepsilon deficient mouse at 1 mg/kg. It is filed as functional, organism-based. Details: dose 1 mg/kg. For orientation: Falling from the rotarod earlier than controls is read as motor impairment.
Assay [14] relates to T4, Protein kinase C epsilon type (Homo sapiens), Q02156 [M486A].
T4 sequence (whole entry): T1 sequence (Q02156 whole entry) with M486A
The description is as §1.

Structures are written as SMILES. Positions count from the first letter of the chain named. The source made the active and inactive calls. The calls are words filed in the database; no cut-off is given here.

Protein kinase C epsilon type (Homo sapiens, UniProt Q02156, M486A), sequence (Q02156 whole entry M486A): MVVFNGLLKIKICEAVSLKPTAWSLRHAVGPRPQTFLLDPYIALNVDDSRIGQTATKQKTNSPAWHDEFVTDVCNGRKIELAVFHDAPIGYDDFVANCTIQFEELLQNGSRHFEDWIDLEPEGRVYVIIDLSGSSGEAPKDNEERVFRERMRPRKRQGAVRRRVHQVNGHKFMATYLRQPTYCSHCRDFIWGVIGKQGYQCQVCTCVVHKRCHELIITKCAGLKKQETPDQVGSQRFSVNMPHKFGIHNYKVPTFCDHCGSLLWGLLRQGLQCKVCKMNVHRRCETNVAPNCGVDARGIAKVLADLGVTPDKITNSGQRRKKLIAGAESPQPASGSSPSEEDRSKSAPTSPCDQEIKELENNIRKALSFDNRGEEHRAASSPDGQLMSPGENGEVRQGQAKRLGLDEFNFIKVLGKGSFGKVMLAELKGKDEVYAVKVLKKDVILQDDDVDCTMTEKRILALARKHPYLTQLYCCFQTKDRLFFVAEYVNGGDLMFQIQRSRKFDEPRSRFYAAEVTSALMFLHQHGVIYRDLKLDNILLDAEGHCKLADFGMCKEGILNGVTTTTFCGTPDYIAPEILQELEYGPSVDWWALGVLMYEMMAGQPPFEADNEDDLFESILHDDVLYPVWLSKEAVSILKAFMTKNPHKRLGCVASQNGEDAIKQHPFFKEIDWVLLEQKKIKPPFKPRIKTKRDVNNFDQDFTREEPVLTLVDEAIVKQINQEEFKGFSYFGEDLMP
Protein kinase C delta type, sequence (Q05655 whole entry): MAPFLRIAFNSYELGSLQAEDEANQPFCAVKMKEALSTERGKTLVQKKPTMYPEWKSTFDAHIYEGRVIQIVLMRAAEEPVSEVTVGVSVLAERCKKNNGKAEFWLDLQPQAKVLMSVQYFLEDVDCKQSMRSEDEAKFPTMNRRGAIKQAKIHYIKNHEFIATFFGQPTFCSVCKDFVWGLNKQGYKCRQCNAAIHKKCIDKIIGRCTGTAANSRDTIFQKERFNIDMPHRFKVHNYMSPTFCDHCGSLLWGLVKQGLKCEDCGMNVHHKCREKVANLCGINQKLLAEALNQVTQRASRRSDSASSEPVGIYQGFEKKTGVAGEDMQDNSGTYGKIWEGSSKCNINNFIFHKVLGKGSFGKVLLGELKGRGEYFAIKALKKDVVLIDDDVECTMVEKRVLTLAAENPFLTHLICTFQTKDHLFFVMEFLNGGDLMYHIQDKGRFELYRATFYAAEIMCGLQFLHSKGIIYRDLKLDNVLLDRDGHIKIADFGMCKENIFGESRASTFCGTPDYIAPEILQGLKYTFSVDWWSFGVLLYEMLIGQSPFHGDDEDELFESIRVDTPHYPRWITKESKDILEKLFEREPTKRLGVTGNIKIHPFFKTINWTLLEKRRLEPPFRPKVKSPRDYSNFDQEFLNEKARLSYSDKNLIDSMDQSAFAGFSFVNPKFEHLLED

On to `CN1C(=O)CN=C(c2ccccc2)c2cc(Cl)ccc21`, for which the Activity in the assay filed under Mus musculus [1] came out at 75%.

Usually IC50 stands for the concentration that inhibits the measured activity by half. High values mean lower potency, low ones higher potency. As for `CC(C)(C)n1nc(-c2cccc3ccccc23)c2c(N)ncnc21`, the outcome in the assay on HEK293 [2] was Active. Moreover, the IC50 in assay [3] was more than 100000 nM; in assay [4], more than 100000 nM; in [5], 21 nM; in assay [6], more than 100000 nM.

`CN1CCc2cc3c(cc2[C@H]1[C@@H]1OC(=O)c2c1ccc1c2OCO1)OCO3`: the result with HEK293 [7] was Active.

On to `CN1C(=O)CN=C(c2ccccc2F)c2cc([N+](=O)[O-])ccc21`, for which the logEC50 in assay [8] was 1.46; in assay [9], 1.99; with HEK293 [10], 1.8; in assay [11] it was 1.46; in the assay with HEK293 [12] it was 1.59.

For the compound `Cc1ccc(-c2nc3ccc(C)cn3c2CC(=O)N(C)C)cc1`, the result (in the assay with Mus musculus [13]; in assay [14]) was Active.

For the compound `CN(C)CCCn1cc(C2=C(c3c[nH]c4ccccc34)C(=O)NC2=O)c2ccccc21` [GF-109203], the IC50 amounted to 32 nM in [3], 6 nM in assay [4], 12 nM in [5] and 30 nM in assay [6].
